Values of other authors, collected in patent EP1598418A1, “STABILISED COMPOSITION FOR FLUORIMETRIC, COLORIMETRIC OR CHEMOLUMINESCENT ASSAYS, KITS CONTAINING SAME AND PRODUCTION METHOD THEREOF” (BIOTOOLS BIOTECHNOLOGICAL & MEDICAL LABORATORIES, S.A., priority 2003, dated 2004).

Biological target: avidin (Gallus gallus, UniProt P02701)
Conditions: avidin/biotin complex; cited from earlier work

Chain of avidin (P02701 25-152): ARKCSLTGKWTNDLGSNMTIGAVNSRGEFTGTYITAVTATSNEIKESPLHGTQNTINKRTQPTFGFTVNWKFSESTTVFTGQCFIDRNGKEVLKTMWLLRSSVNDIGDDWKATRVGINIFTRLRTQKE

## O=C(O)CCCC[C@@H]1SC[C@@H]2NC(=O)N[C@@H]21 [biotin, Biotin]
  dissociation energy: 21 kcal/mol
